Experiment [1] has as its target purified recombinant bacterial sialidase from Salmonella T. (Salmonella typhimurium, UniProt P29768). In words: Biochemical evaluation of chromogenic substrate with bacterial sialidase. The following applies: substrate ca. 0.7 mM, 30 minutes.
For experiment [2], the target named is viral sialidase from whole influenza virus A1PR/8/34 (Influenza A virus, UniProt P03468). The experiment in a line: Biochemical evaluation of chromogenic substrate with viral sialidase. Particulars: substrate ca. 0.7 mM, 30 minutes. On the procedure:
Biochemical evaluation for the chromogenic product of viral sialidase substrate compounds. Sialidase can be obtained from, for example, purified recombinant bacterial sialidase from Salmonella T., whole influenza virus, or culture medium containing secreted human sialidase from the 2CFSME cell line. The sialidase preparation is added to a buffer of sodium acetate (0.05 to 0.5 M; pH 5.0-6.0), and the substrate compound is provided at about 0.2-1.0 mM concentration. It should be noted that numerous other examples of buffer solution may be used, including organic acids such as citrate buffers, for example, as well as inorganic buffers, including potassium, sodium, calcium, and other such salts thereof. […] The color change is readily visible. The color change can be quantitated spectrophotometrically by measuring the light absorption of the reaction mixture. […]
E. Biochemical Evaluation of a Chromogenic Substrate Product with Bacterial Sialidase and with Viral Sialidase. […] The reaction progress was quantitated by measuring the light absorption of the reaction mixture. The light absorption was measured with a spectrophotometer at 517 nm with a 1 cm path cell. In the experiment conducted with bacterial sialidase, the absorbance was measured as 2.448. In the experiment conducted with viral sialidase, the absorbance was measured as 1.168. […]

Where [3] appears, read: pH 6.0, 37° C., after addition of sodium hydroxide (pH>11.0).

Chain of purified recombinant bacterial sialidase from Salmonella T. (P29768 whole entry): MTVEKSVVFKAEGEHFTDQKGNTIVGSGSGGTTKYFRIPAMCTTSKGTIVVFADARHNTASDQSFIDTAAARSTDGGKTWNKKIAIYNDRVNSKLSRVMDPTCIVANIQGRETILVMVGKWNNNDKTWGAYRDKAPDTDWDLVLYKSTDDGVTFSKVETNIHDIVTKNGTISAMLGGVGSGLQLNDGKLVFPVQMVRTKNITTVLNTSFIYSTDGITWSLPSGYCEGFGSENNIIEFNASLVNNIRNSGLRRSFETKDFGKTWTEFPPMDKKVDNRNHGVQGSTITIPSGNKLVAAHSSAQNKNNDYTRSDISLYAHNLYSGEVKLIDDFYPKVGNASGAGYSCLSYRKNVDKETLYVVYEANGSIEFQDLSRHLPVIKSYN
Chain of viral sialidase from whole influenza virus A1PR/8/34 (P03468 whole entry, looked up): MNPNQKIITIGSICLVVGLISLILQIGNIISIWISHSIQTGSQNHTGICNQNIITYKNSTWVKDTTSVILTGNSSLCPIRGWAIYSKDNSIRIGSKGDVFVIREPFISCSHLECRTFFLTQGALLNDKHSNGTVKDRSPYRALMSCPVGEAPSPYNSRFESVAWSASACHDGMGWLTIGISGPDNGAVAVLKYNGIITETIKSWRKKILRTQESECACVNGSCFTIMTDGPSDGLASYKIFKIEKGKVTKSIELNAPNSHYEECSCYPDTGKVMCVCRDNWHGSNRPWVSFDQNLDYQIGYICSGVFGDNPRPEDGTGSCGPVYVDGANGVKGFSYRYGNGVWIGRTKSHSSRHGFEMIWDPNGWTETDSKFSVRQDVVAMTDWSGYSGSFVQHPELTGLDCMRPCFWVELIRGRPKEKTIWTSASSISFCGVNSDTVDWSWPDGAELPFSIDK

With `COC(=O)C1(Oc2cc(C)c(C3(c4cc(C(C)C)c(O)cc4C)OC(=O)c4ccccc43)cc2C(C)C)CC(OC)C(NC(C)=O)C([C@H](N)[C@H](O)CO)O1` (stereo partly shown) [Compound 9c], the “absorbance (light absorption of the reaction mixture)” value in experiment [1] (517 nm, 1 cm path cell, potassium acetate 0.5 M pH 6.0, 37° C., then sodium hydroxide 1.0 M) is reported as 2.448; in experiment [2] (517 nm, 1 cm path cell, potassium acetate 0.5 M pH 6.0, 37° C., then sodium hydroxide 1.0 M, reaction not allowed to proceed to completion) it was 1.168. The visible color change entry in experiment [1] (setting [3]) and in experiment [2] (setting [3]) was “color change to blue was readily visible” each time.

The values above are taken from patent publication US6667161B1, “Chromogenic substrates of sialidase of bacterial, viral, protozoa, and vertebrate origin and methods of making and using the same” (Ibbex, Inc., priority 1997, dated 2003).
